Experimental data published in US20100239670A1, “Topical Composition Method for Treating Urinary Stress Incontinence” (Plethora Solutions Ltd., priority 2000, published 2010).

Tests used:
[1] = test system: female patients with documented history of stress incontinence; assay: Supine and standing blood pressure and pulse rate in the same cross-over study; format: in vivo; details: single topical dose, gel 0.5 ml, 20% w/w; up to 5 hours post dosing
Procedure: (§1) The invention has been evaluated in a double-blind, randomised, 2-way cross-over study in female patients with documented history of stress incontinence. Each patient was exposed to both placebo and active drug over the course of the study.
(§2) Each patient received either a single dose of topical phenylephrine gel (20% w/w in a volume of 0.5 ml) or placebo according to the randomisation schedule. The gel was applied to the peri-urethral area; in, onto or around the area of the vagina and/or vaginal mucosa, in close proximity to the urethra. For up to 5 hours post dosing, urethral pressure was measured using the standard Lectromed/Galetec MPR/2 ambulatory measurement system. Supine and standing blood pressure and pulse rate was likewise measured using standard methodology via a Dinamap semi-automatic sphygmomanometer.

[2] = test system: female patients with documented history of stress incontinence; assay: Urethral pressure after topical gel, double-blind randomised 2-way cross-over study; format: in vivo; details: single topical dose, gel 0.5 ml, 20% w/w, applied to peri-urethral area; up to 5 hours post dosing; in contrast to placebo; two typical patients (FIGS. 1 and 2)
Procedure: as §1, §2

[3] = literature, cited from earlier work

Q: What does the source list for `CNC[C@H](O)c1cccc(O)c1` [phenylephrine]?
A: diastolic or systolic blood pressure [1]: no clinically significant changes; pulse rate [1]: no clinically significant changes; intra-urethral pressure [2]: marked and sustained increases; blood pressure ([3]; not topical): substantial elevations; duration of action [3]: short; oral bioavailability ([3]; oral): low
